One series addresses human plasma kallikrein (Homo sapiens (Human), UniProt P03952). The series is described as follows: Plasma Kallikrein Activity Assay. The series is classed as biochemical.
Series [1] deals with LPS- or bacterial-induced sepsis. As to conditions: LPS- or bacterial-induced sepsis in animals; cited from earlier work.
Series [2] has as its system hereditary angioedema (HAE). As to conditions: cited from earlier work.
Another series concerns sepsis. The settings on record: sepsis patients; cited from earlier work.
In series [3] the test system is middle cerebral artery occlusion (MCAO). As to conditions: mouse model of MCAO; cited from earlier work.
The test system of the next series is ischemic stroke. The settings on record: animal model of ischemic stroke; cited from earlier work.

human plasma kallikrein, sequence (P03952 whole entry, looked up): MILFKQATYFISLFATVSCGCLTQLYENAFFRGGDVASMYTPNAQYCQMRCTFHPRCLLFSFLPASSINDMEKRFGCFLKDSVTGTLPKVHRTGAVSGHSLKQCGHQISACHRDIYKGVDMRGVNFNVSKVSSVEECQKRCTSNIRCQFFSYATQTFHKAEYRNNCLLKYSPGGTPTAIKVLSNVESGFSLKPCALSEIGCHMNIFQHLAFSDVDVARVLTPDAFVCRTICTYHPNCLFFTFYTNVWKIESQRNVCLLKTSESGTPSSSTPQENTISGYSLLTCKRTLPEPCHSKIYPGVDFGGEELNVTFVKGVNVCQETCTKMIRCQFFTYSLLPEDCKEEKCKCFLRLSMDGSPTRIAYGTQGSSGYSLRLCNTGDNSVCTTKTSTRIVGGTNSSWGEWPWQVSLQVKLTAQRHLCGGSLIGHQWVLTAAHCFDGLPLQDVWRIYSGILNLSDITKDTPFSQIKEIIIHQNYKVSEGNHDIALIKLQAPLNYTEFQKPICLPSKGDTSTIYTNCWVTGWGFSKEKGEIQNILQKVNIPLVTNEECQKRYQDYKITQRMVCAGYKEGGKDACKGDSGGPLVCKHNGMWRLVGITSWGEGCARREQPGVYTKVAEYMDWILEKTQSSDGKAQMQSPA
human plasma kallikrein, sequence (P03952 whole entry partner, looked up): as the sequence (P03952 whole entry, looked up) above
Protocol for human plasma kallikrein: The effect of compounds of the invention on human plasma kallikrein activity was determined using the chromogenic substrates (DiaPharma Group, Inc., West Chester, Ohio, USA). In these experiments, 2 nM kallikrein (Enzyme Research Laboratories, South Bend, Ind., USA) was incubated with 80 μM S2302 (H-D-Pro-Phe-Arg-p-nitroaniline) in the absence or presence of increasing concentrations of compounds of the invention in a final volume of 200 μL Tris-HCl buffer (200 mM NaCl; 2.5 mM CaCl2; 50 mM Tris-HCl, pH 7.8).
Data were analyzed using SigmaPlot software (Systat Software, Inc., San Jose, Calif., USA) (Four Parameter Logistic Curve).

A word on the Ki: it is a dissociation constant, usually derived from enzyme kinetics or from competition with a known ligand. High values mean lower affinity, low ones higher affinity. `CN(C1CC1)C(c1cccc(N)c1)c1cccc(NC(=O)c2cc(C(F)(F)F)nn2-c2cccc(CN)c2)c1` (centres unmarked) [Compound 102b, 1-(3-(aminomethyl)phenyl)-N-(3-((3-aminophenyl)(cyclopropyl-methylamino)methyl)phenyl)-3-(trifluoromethyl)-1H-pyrazole-5-carboxamide] displayed a Ki at human plasma kallikrein of 0.1 to 50 nM.

With “H-D-Pro-Phe-Arg-chloromethylketone [H-D-Pro-Phe-Arg-chloromethylketone (CMK)]”, in series [1], the lesions result is “reduce lesions”.

For the compound `NC(N)=NCCC[C@@H](N)C(=O)N[C@@H](CCCN=C(N)N)C(=O)N1CCC[C@H]1C(=O)N1C[C@H](O)C[C@H]1C(=O)NCC(=O)N[C@@H](Cc1cccs1)C(=O)N[C@@H](CO)C(=O)N1Cc2ccccc2C[C@@H]1C(=O)N1[C@H](C(=O)N[C@@H](CCCN=C(N)N)C(=O)O)C[C@@H]2CCCC[C@@H]21` [Icatibant], in series [2] (HAE), the “efficacy in treating HAE” value is listed as “effective in treating HAE”.

As to “C1-inhibitor: "a physiological inhibitor (C1-inhibitor)"; "reduced infarct size in a mouse model of middle cerebral artery occlusion" [Compound C1-inhibitor]”, the clinical improvement entry in the series with sepsis is listed as “Clinical improvement was observed”. In series [1], the lesions entry is “reduce lesions” and the “vascular permeability in multiple organs” value was “reduce vascular permeability”. Besides, in series [3], the infarct size result is given as “reduced infarct size”.

Take ecallantide [DX-88]: in series [2] (patients with hereditary angioedema (HAE)), the edema entry is on record as “alleviates edema”. Moreover, in the series on ischemic stroke, the brain edema result is “reduced”, the infarct volume result is “reduced” and the neurological deficits result is “reduced”.

The values above are taken from US10689346B2, “Human plasma kallikrein inhibitors” (BioCryst Pharmaceuticals, Inc., priority 2014, dated 2020).
